Results as given in ChEMBL document CHEMBL1201862, “PubChem BioAssay data set” (2004).
Calls of active or inactive are those of the source. Cut-off read from the data, not from the text of the source: actives have a measured IC50 and inactives only a lower limit.

Target: Envelope glycoprotein gp160 (Human immunodeficiency virus 1, UniProt Q6QLK5)
Experiment: inhibitors of HIV fusion peptide binding, primary screen, biochemical, uHTS, fluorescence dequenching (AID 1986)

Chain of Envelope glycoprotein gp160 (Q6QLK5 whole entry, the tested form may be a part): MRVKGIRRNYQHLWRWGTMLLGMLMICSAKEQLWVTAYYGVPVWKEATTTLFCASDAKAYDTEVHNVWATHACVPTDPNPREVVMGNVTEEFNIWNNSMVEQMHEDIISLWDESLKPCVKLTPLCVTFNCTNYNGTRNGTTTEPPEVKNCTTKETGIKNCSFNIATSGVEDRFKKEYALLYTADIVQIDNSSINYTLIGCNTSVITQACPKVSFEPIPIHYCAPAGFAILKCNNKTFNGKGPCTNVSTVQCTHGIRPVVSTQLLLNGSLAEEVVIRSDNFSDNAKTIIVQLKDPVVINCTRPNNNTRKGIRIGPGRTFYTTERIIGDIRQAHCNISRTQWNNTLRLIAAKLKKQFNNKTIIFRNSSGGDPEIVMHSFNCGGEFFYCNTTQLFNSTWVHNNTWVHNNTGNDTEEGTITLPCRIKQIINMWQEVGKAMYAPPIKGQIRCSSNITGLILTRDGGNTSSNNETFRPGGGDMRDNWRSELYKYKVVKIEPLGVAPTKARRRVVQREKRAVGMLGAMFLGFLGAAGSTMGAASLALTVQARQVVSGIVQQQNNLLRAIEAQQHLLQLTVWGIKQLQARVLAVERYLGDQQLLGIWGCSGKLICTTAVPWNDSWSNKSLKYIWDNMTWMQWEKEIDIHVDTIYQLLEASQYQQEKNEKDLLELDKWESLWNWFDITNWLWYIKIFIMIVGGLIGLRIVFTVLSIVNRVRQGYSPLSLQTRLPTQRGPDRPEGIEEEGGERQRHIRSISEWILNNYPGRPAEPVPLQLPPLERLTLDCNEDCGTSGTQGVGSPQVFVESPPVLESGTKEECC

In the case of `O=C1Nc2ccc(Br)cc2/C1=C1/SC(=S)N(NS(=O)(=O)c2ccccc2)C1=O`, the IC50 is reported as 23.9 µM (active).
